How the values were obtained:
Assay type in all cases: cell-based
[1] = tested on: α2β3γ1 GABAAR co-expressed with human UT; assay: Patch-clamp of Iso-evoked current in CHO-UT expressing α2β3γ1 GABAAR; settings: hUII 10^−13 to 10^−7 M; Iso 10^−4 M, 2 s; −60 mV
Experimental: (§1) CHO-K1 cell lines were obtained from American Type Culture Collection (Manassas, VA, USA). The human UT stable CHO (CHO-UT) was generously provided by Dr Christophe Dubessy (Inserm, Rouen University, France) et generated by CHO electroporation with 20 µg pIRES-neo2-UT DNA and 500 µg sterile sonicated salmon sperm DNA using the EasyJect One electroporation system (Equibio, Angleur, Belgium), followed by repetitive rounds of limiting dilution of cells in G-418 (400 µg/ml) for selection. Normal or stable CHO was grown in Ham-F12 medium supplemented with 10% FBS, 1% antibiotic-antimicotic solution and 2 mM glutamine, at 37°C in a humidified incubator with an atmosphere of 5% CO2. The stable CHO-UT medium was supplemented with the antibiotic G-418 (40 µg/ml).
(§2) For transfection, cells were trypsinized (0.05%), triturated in HamF-12 containing 10% FBS media, pelleted by centrifugation, resuspended in 100 µl solution V for nucleofection by an Amaxa Nucleofector Device (Köln, Germany; set to program U-016). Experiments were performed on normal CHO or on the stable CHO-UT cells and transiently transfected with combinations of cDNA encoding α2β3γ2, α2β3γ1, α2β1γ2, α2β3γ1, α2β3, β3γ2 (4 µg of cDNA total/transfection) GABAAR subunits. Cells were seeded on 14-mm poly-L-lysine-coated glass bottom insert dishes at 5×10^5 cells in a volume of 0.5 ml/dish. […]

[2] = tested on: α2β1 GABAAR co-expressed with human UT; assay: Patch-clamp of Iso-evoked current in CHO-UT expressing α2β1 GABAAR; settings: hUII 10^−13 to 10^−7 M; Iso 10^−4 M, 2 s; −60 mV
[3] = tested on: GABAAR subunit combinations co-expressed with human UT; assay: Patch-clamp of GABA current in CHO co-expressing human UT and combinations of GABAAR subunits
Experimental: as §1, §2

Substance | Inhibitory effect on Iso-evoked current, α2β3γ1 [1] | Inhibitory effect on Iso-evoked current, α2β1 [2] | Activity on αβ binary complexes [3] | Depression of GABA current, order of subunit combinations [3]
ETPDCFWKYCV (disulfide) [hUII, human urotensin II, synthesized by solid phase methodology] | less effective | totally ineffective |  | 
UII: Urotensin II, species not stated at that place (rUII in astrocytes, hUII in CHO and human cells) |  |  | inactive | markedly depressed the GABA current (β3γ2>α2β3γ2>α2β1γ2)
